In brackets after ≈: the same amount, converted by molar mass. Where two headings read alike, the source gives them in different places.
Assays:
[1] = test system: Resistant Strains: Candida albicans C79, C6, C8, C31, C54, C70, C104, C138, C140; Candida stellatoidea C45; test: microtiter minimum inhibitory concentration (MIC) test, resistant strains (MIC-R); assay type: cell-based; settings: geometric mean of MICs against resistant strains, YNB pH 5.4, 37° C., 48 hours, lowest concentration preventing visible growth
Protocol: (§1) In vitro anti-fungal activity was determined in microtiter minimum inhibitory concentration (MIC) tests using Yeast Nitrogen Broth (YNB without amino acids, Difco., Detroit, Mich.) at pH 5.4. Yeasts were grown overnight in Sabouraud Dextrose Broth at 28° C. with shaking, and concentrations adjusted in sterile saline using a spectrophoptometer at 540 mμ. Compounds were dissolved in various vehicles and diluted in media to twice the final concentrations. The Cetus Pro/Pette system was used to serially dilute 50 μl in round bottom 96 well plates (Falcon, Lincoln Park, N.J.). The turbidometrically adjusted yeast suspensions were diluted 1:3,000 in YNB. These dilutions when added to the wells, produced a final inoculum of 3×10^3 /ml. Plates were incubated at 37° C. for 48 hours. MICs were defined as the lowest concentrations of compound that prevented visible growth. MICs were taken against the following organisms and expressed in the table above as the geometric mean.
(§2) MIC-R and MIC-S mean respectively MICs taken against resistant and sensitive strains.
Candida stellatoidea C45

[2] = test system: Sensitive Strains: Candida albicans C141, Candida sp. C2, Candida sp. C109, Candida parapsilosis C67, Candida tropicalis C112, Torulopsis glabrata C95, Candida …; assay type: cell-based, Candida spp., Sacchararomyces; settings: geometric mean of MICs against sensitive strains, YNB pH 5.4, 37° C., 48 hours, lowest concentration preventing visible growth
Protocol: as §1, §2
Candida parapsilosis C67
Candida tropicalis C112
Torulopsis glabrata C95
Candida pseudotropicalis C967
Candida guillermondii C137
Sacchararomyces mutant C147

For CCCCCCCCCCCCCCCCCCNC(=O)C(NC(=O)C(N)Cc1c[nH]c2ccc(O)cc12)C1OC(n2ccc(=O)[nH]c2=O)C(O)C1O (centres unmarked) [Compound 4], the MIC-R [1] was greater than 2048 µg/mL and the MIC-S [2] was greater than 2048 µg/mL.

CCCCCCCCCCCCNC(=O)C(NC(=O)C(N)CCc1ccc2ccccc2n1)C1OC(n2ccc(=O)[nH]c2=O)C(O)C1O (centres unmarked) [Compound 16] gave an MIC-R ([1]; listed as drawing 72) of 294 µg/mL (≈ 441 µM) and an MIC-S ([2]; listed as drawing 72) of 239 µg/mL (≈ 358 µM).

Compound CCCCCCCCCCCCNC(=O)C(NC(=O)C(N)C(C)Cn1ccnc1)C1OC(n2ccc(=O)[nH]c2=O)C(O)C1O (mixture of isomers) [Compound 11] has an MIC-R [1] of 316 µg/mL and an MIC-S [2] of 85 µg/mL.

With CCCCCCCCCCCCNC(=O)C(NC(=O)[C@@H](N)C(C)Cc1ccc(OC)cc1)C1OC(n2ccc(=O)[nH]c2=O)C(O)C1O (some centres unmarked) [Compound 12, 6'-Dodecylamido-5-N-(2-S-amino-3-R,S-methyl-4-p-methoxyphenyl-butyryl) UPOC] the MIC-R [1] was 28 µg/mL (≈ 42.4 µM) and the MIC-S [2] was 208 µg/mL (≈ 315 µM).

CCCCCCCCCCCCNC(=O)C(NC(=O)C(N)c1ccccc1)C1OC(n2ccc(=O)[nH]c2=O)C(O)C1O (centres unmarked) [Compound 24] was tested, and the MIC-R [1] was 18 µg/mL (≈ 30.6 µM) and the MIC-S [2] was 194 µg/mL (≈ 330 µM).

With CCCCCCCCCCCCN(OCc1ccccc1)C(=O)C(NC(=O)C(N)Cc1c[nH]c2ccc(O)cc12)C1OC(n2ccc(=O)[nH]c2=O)C(O)C1O (centres unmarked) [Compound 14] the MIC-R [1] was 28 µg/mL (≈ 36.7 µM) and the MIC-S [2] was 119 µg/mL (≈ 156 µM).

For CCCCCCCCCCNC(=O)C(NC(=O)C(N)Cc1c[nH]c2ccc(O)cc12)C1OC(n2ccc(=O)[nH]c2=O)C(O)C1O (centres unmarked) [Compound 13], the MIC-R [1] was 181 µg/mL (≈ 288 µM) and the MIC-S [2] was 388 µg/mL (≈ 617 µM).

CCCCCCCCCCCCNC(=O)C(NC(=O)C(N)Cc1c[nH]c2ccc(O)cc12)C1OC(n2ccc(=O)[nH]c2=O)C(O)C1O (centres unmarked) [Compound 3, 6'-Dodecylamido-5-N-(5-hydroxytryptophanyl)UPOC] gave an MIC-R [1] of 23 µg/mL (≈ 35 µM) and an MIC-S [2] of 478 µg/mL (≈ 728 µM).

CC(C)=CCCC(C)=CCCC(C)=CCNC(=O)C(NC(=O)C(N)Cc1c[nH]c2ccc(O)cc12)C1OC(n2ccc(=O)[nH]c2=O)C(O)C1O (centres unmarked) [Compound 15] was tested, and the MIC-R [1] was 143 µg/mL (≈ 206 µM) and the MIC-S [2] was 362 µg/mL (≈ 523 µM).

CCCCCCCCCCCCCCNC(=O)C(NC(=O)C(N)Cc1c[nH]c2ccc(O)cc12)C1OC(n2ccc(=O)[nH]c2=O)C(O)C1O (centres unmarked) [Compound 9] gave an MIC-R [1] greater than 256 µg/mL and an MIC-S [2] of 147 µg/mL (≈ 215 µM).

CCCCCCCCCCCCNC(=O)C(NC(=O)C(N)Cc1cn(C)c2ccccc12)C1OC(n2ccc(=O)[nH]c2=O)C(O)C1O (centres unmarked) [Compound 25] was tested, and the MIC-R [1] was greater than 256 µg/mL and the MIC-S [2] was greater than 256 µg/mL.

CCCCNC(=O)[C@@H](NC(=O)[C@@H](N)Cc1c[nH]c2ccc(O)cc12)[C@H]1O[C@@H](n2ccc(=O)[nH]c2=O)[C@H](O)[C@@H]1O [Compound 1] showed an MIC-R [1] greater than 4096 µg/mL and an MIC-S [2] greater than 4096 µg/mL.

With CCCCCCCCCCCCN(O)C(=O)C(NC(=O)C(N)Cc1c[nH]c2ccc(O)cc12)C1OC(n2ccc(=O)[nH]c2=O)C(O)C1O (centres unmarked) [Compound 18] the MIC-R [1] was 39 µg/mL (≈ 58 µM) and the MIC-S [2] was 239 µg/mL (≈ 355 µM).

CCCCCCCCCCCCNC(=O)C(NC(=O)C(N)Cc1csc2ccc(O)cc12)C1OC(n2ccc(=O)[nH]c2=O)C(O)C1O (single isomer, unassigned) [Compound 21] gave an MIC-R [1] of 208 µg/mL (≈ 309 µM) and an MIC-S [2] of 158 µg/mL (≈ 234 µM).

Compound CCCCCCCCCCCCNC(=O)C(NC(=O)C(N)Cc1ccc(OC)cc1)C1OC(n2ccc(=O)[nH]c2=O)C(O)C1O (centres unmarked) [Compound 23] has an MIC-R [1] of 9.8 µg/mL (≈ 15.5 µM) and an MIC-S [2] of 56 µg/mL (≈ 88.6 µM).

Compound CCCCCCCCCCCCNC(=O)C(NC(=O)C(N)CCc1ccc2ccccc2n1)C1OC(n2ccc(=O)[nH]c2=O)C(O)C1O (centres unmarked) [Compound 17] has an MIC-R ([1]; listed as drawing 73) of 21 µg/mL (≈ 31.5 µM) and an MIC-S ([2]; listed as drawing 73) of 158 µg/mL (≈ 237 µM).

NC(Cc1c[nH]c2ccc(O)cc12)C(=O)NC(C(=O)NCc1ccccc1)C1OC(n2ccc(=O)[nH]c2=O)C(O)C1O (centres unmarked) [Compound 20] gave an MIC-R [1] greater than 256 µg/mL and an MIC-S [2] greater than 256 µg/mL.

CCCCCCCCCCCCNC(=O)C(NC(=O)C(N)Cc1csc2ccc(O)cc12)C1OC(n2ccc(=O)[nH]c2=O)C(O)C1O (single isomer, unassigned) [Compound 22] was tested, and the MIC-R ([1]; listed as drawing 80) was greater than 256 µg/mL and the MIC-S [2] was 158 µg/mL (≈ 234 µM).

For CCCCCCCCCCCCNC(=O)C(NC(=O)C(N)C(C)Cc1ccc(O)cn1)C1OC(n2ccc(=O)[nH]c2=O)C(O)C1O (centres unmarked) [Compound 10], the MIC-R [1] was 147 µg/mL (≈ 227 µM) and the MIC-S [2] was 478 µg/mL (≈ 739 µM).

Source: patent publication US5618793A, “Nikkomycin analogs” (Schering Corporation, priority 1995, dated 1997)
